Each block holds one compound with its values, some of them ahead of it. Activity calls are given as the source filed them.
Assays:
[1] = viability loss in HeLa cells – cytotoxicity control for MgcRacGAP inhibitor project, dose response (AID 624300); format: functional
[2] = Trypanosoma cruzi growth suppression in host cells – NIH3T3 host cells, beta-gal luminescence, confirmation (AID 2044); format: functional, cell-based;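 further: intracellular parasites grown in NIH/3T3 mouse fibroblasts as host cells; luminescent beta-galactosidase reporter signal from transgenic T. cruzi replicating inside host cells; inhibitors lower the luminescence signal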
CAAX prenyl protease 2 = molecular target: T1, CAAX prenyl protease 2 (Saccharomyces cerevisiae S288c, UniProt Q03530); format: biochemical
T1 sequence (Q03530 whole entry): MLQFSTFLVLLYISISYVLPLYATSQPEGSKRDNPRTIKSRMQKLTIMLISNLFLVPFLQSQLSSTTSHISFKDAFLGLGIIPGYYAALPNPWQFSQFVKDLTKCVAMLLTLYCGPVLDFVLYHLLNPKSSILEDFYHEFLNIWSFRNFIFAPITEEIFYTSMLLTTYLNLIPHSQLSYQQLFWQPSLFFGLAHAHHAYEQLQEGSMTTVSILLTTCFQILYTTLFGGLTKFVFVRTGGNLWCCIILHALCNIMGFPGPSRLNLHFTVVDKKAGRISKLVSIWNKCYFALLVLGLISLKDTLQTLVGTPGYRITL

Trypsin = Trypsin (Sus scrofa, UniProt P00761); assay: trypsin protease activity blockade – biochemical, quenched peptide fluorescence, cherry-pick, selectivity assay for Rce1 protease inhibitor project, dose response (AID 488789)
[3] = NIH3T3 cell viability loss – ATP luminescence, mouse fibroblasts, counter-screen, dose response (AID 2010); format: functional, cell-based;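 further: cells exposed to compound for about 90 hours before reading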
[4] = molecular target: T2, Rac GTPase-activating protein 1 (Homo sapiens, UniProt Q9H0H5); assay: blockers of MgcRacGAP-driven Rac1 GTP hydrolysis – biochemical, ADP Hunter fluorescence, primary and confirmatory, confirmation (AID 624330); format: functional
T2 sequence (Q9H0H5 whole entry): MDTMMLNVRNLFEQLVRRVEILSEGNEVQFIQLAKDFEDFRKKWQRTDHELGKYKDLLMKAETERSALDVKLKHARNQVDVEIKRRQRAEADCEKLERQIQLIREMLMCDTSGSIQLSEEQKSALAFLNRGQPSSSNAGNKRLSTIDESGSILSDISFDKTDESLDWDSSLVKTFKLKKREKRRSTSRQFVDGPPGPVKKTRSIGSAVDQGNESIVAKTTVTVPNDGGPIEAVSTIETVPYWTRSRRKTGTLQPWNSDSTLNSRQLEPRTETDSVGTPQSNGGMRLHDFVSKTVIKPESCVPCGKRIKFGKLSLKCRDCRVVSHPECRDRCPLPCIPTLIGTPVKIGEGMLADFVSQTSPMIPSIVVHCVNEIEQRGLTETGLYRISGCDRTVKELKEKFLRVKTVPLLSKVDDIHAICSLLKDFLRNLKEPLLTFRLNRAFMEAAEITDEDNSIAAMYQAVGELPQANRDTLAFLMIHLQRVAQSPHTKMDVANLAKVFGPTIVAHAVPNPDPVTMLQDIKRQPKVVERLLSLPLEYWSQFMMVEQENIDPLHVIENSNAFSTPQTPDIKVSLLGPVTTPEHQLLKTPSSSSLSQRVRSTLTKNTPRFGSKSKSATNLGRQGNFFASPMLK

[5] = molecular target: DNA dC->dU-editing enzyme APOBEC-3G (Homo sapiens, UniProt Q9HC16); assay: Dose Response confirmation of small molecule APOBEC3G DNA Deaminase Inhibitors via a fluorescence-based single-stranded DNA deaminase assay. [Related pubchem assays (depositor defined):AID493012, AID493028]; format: functional
HEK293 [6] = assay: cells; format: functional, cell-based; conditions: Homo sapiens
HEK293 [7] = assay: cells; format: functional, cell-based; conditions: Homo sapiens; remark: listed apart in the source
HEK293 [8] = assay: cells; format: functional, cell-based; conditions: Homo sapiens; remark: listed apart in the source
HEK293 [9] = assay: inhibition of NOD1-driven NF-kB reporter – cell-based, luminescence, uHTS, primary screen (AID 1578); format: functional; conditions: Homo sapiens
HEK293 [10] = assay: NOD2 signaling inhibitors in MDP-stimulated cells, cell-based, uHTS, luminescence (AID 2001); format: functional; conditions: Homo sapiens
[11] = molecular target: Nucleotide-binding oligomerization domain-containing protein 2 (Homo sapiens, UniProt Q9HC29); assay: inhibition of NOD2-driven NF-kB reporter – cell-based, luminescence, uHTS, HEK293 (AID 1566); format: functional
Coagulation factor XII = molecular target: T3, Coagulation factor XII (Homo sapiens, UniProt P00748); format: functional;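 further: activated factor XIIa alpha cleaving a fluorogenic AMC peptide substrate; inhibitor potency from loss of enzyme activity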
T3 sequence (P00748 whole entry): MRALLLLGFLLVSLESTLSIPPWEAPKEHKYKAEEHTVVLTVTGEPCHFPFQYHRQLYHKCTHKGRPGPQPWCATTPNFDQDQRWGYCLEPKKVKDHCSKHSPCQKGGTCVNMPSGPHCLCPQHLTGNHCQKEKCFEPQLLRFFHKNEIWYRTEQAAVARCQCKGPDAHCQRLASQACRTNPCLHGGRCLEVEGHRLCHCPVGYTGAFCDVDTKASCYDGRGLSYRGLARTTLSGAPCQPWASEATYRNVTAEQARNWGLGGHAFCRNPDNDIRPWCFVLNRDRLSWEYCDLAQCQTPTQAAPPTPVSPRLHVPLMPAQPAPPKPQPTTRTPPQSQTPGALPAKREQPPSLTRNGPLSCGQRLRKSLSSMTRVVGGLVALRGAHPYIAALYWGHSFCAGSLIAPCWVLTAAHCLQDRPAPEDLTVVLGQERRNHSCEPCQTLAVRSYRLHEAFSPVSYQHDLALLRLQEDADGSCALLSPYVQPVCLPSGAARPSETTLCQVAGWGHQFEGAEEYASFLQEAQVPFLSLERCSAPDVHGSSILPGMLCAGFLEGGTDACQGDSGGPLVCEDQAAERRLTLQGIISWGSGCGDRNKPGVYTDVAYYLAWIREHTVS

[12] = HEK-293T viability loss after treatment – luminescence, T-cell screen hits, cytotoxicity control for TCR NF-kB inhibitor project, dose response (AID 489026); format: functional, cell-based;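 further: cells exposed to compound about 14 hours before the viability readout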
[13] = molecular target: T4, Nucleotide-binding oligomerization domain-containing protein 1 (Homo sapiens, UniProt Q9Y239); assay: blockers of NOD1 pathway activity – revised, SAR follow-up (AID 2333); format: functional
T4 sequence (Q9Y239 whole entry): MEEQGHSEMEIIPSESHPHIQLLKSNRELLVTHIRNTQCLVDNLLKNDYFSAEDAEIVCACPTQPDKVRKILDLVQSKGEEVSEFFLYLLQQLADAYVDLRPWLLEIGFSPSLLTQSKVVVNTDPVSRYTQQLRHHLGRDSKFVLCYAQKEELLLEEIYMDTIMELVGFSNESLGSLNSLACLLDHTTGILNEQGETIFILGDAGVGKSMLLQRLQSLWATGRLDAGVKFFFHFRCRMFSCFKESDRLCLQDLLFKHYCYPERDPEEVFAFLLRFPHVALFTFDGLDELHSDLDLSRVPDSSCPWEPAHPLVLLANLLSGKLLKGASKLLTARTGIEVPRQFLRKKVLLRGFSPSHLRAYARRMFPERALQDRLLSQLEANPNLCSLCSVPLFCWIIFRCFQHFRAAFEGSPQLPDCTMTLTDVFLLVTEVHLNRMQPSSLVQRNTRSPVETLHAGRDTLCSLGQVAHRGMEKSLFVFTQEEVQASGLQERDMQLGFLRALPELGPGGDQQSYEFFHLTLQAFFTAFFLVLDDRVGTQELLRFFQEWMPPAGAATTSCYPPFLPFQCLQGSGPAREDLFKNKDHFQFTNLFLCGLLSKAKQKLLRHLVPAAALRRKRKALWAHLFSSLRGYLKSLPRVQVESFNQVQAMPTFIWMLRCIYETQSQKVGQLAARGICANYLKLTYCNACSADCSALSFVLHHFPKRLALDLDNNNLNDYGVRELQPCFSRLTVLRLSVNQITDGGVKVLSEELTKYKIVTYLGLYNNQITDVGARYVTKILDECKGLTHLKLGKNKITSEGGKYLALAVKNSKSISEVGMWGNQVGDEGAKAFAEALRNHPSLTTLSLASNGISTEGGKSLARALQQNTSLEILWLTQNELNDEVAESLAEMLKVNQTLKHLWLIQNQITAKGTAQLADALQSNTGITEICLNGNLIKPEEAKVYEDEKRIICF

Tumor necrosis factor = Tumor necrosis factor (Homo sapiens, UniProt P01375); assay: analog potency on TNFa NF-kB signaling – cell-based, revised, SAR follow-up (AID 2337); format: functional
HEK293 [14] = assay: cells; conditions: Homo sapiens
BJ [15] = assay: BJ-TERT fibroblast viability loss – cell-based, RAS-independent, luminescence, dose response (AID 1933); format: functional; conditions: Homo sapiens
BJ [16] = assay: BJ-TERT-LT-ST fibroblast viability loss – cell-based, RAS-independent, luminescence, dose response (AID 1935); format: functional; conditions: Homo sapiens;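 further: BJ fibroblasts immortalized with TERT plus LT and ST oncogenes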
BJ [17] = assay: cells; format: functional, cell-based; conditions: Homo sapiens
INS1 = assay: INS-1E survival protection against cytokine death – cell-based, luminescence, retest, dose response (AID 449756); format: functional; conditions: Rattus norvegicus;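 further: cell death triggered by IL-1 beta plus TNF-alpha plus IFN-gamma mixture; protective hits raise ATP signal compared with cytokine alone wells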
[18] = DRD fibroblast viability loss – cell-based, non-viral oncogenic, luminescence, dose response (AID 1934); format: functional; conditions: Homo sapiens
Aminopeptidase N = molecular target: T5, Aminopeptidase N (Plasmodium falciparum FcB1/Columbia, UniProt O96935); assay: malaria alanyl aminopeptidase activity blockers – biochemical, fluorogenic H-Leu-NHMec substrate, 1536-well (AID 1445); set-up: species or system Plasmodium falciparum 3D7, 3D7
T5 sequence (O96935 whole entry): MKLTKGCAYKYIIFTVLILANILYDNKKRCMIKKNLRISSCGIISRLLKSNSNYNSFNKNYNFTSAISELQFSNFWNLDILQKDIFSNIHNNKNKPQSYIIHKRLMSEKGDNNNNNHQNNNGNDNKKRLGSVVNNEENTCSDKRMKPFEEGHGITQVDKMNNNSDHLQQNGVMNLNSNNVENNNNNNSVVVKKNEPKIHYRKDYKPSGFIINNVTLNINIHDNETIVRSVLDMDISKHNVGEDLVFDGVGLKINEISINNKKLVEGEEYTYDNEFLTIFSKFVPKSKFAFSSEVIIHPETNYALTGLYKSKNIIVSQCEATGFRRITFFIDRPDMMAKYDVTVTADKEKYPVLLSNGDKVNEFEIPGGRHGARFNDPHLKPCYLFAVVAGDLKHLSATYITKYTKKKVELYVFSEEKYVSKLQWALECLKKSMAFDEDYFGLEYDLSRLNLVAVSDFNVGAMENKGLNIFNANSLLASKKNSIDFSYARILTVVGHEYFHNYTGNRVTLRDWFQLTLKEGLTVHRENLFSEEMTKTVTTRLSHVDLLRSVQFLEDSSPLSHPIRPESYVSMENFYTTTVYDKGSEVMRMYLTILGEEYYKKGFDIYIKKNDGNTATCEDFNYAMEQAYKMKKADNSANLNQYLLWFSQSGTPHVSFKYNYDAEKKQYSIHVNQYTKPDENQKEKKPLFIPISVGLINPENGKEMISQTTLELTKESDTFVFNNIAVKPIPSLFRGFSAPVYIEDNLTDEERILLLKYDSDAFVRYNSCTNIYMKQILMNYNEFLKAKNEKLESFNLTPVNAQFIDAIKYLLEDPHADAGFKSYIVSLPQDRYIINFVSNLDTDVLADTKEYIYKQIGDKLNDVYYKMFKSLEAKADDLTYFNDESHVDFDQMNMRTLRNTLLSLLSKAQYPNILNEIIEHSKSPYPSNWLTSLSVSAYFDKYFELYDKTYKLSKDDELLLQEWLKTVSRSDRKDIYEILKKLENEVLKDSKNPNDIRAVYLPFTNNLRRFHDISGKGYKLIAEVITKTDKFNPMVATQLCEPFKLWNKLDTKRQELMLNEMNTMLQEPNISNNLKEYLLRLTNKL

Sequence of Nucleotide-binding oligomerization domain-containing protein 2 (Q9HC29 whole entry, the tested form may be a part): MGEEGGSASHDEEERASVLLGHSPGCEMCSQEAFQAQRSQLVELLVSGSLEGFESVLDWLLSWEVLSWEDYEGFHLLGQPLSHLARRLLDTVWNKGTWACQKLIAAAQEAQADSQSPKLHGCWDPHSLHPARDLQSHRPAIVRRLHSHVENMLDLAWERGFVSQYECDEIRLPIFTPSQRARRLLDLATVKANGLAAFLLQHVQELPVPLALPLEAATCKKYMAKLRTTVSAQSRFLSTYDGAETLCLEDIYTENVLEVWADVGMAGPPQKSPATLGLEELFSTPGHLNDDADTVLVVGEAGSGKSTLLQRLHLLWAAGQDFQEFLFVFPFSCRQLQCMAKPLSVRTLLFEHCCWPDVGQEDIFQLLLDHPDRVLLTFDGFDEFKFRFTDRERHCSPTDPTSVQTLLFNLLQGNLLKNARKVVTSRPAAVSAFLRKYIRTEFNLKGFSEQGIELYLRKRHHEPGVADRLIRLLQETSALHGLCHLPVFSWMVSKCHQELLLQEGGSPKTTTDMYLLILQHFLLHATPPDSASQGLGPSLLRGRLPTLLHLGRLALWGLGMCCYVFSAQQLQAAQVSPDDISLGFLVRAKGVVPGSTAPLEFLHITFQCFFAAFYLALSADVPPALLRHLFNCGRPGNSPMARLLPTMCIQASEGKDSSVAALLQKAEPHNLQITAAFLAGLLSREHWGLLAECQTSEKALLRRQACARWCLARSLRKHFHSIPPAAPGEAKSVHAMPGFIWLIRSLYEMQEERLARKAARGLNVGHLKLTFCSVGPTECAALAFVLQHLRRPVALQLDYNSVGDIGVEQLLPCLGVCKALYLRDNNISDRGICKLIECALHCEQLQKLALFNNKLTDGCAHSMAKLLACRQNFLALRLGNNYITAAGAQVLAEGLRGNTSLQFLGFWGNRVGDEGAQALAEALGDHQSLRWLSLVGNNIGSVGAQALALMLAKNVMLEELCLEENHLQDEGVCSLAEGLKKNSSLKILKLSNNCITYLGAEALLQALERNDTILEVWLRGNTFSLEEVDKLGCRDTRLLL
Sequence of Trypsin (P00761 whole entry): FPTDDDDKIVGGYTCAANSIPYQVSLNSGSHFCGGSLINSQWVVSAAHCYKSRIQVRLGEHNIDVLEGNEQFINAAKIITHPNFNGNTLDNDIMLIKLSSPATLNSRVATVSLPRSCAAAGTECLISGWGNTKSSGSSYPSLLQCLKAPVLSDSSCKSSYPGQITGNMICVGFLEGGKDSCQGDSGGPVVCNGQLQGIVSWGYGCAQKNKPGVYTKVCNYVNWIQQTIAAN
Sequence of DNA dC->dU-editing enzyme APOBEC-3G (Q9HC16 whole entry): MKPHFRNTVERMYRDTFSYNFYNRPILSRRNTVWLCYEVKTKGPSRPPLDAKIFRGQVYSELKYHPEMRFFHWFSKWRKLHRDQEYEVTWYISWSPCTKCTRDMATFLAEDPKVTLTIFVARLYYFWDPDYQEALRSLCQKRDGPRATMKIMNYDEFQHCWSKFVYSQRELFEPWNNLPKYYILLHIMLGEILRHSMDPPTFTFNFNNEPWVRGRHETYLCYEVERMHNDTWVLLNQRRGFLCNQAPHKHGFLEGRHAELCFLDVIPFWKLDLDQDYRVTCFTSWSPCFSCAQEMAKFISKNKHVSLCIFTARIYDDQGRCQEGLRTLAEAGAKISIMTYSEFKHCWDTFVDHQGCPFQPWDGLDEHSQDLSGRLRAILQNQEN
Sequence of Tumor necrosis factor (P01375 whole entry): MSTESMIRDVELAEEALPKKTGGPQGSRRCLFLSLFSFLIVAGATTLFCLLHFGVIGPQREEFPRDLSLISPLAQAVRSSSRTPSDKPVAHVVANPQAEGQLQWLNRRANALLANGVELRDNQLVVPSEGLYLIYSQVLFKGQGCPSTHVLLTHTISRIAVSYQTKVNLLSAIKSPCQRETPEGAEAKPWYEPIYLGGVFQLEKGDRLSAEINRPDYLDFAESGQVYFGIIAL

Compound: COc1ccc(C2CC(c3ccc4ccccc4c3)=NN2C(=O)CNC2CCCCC2)cc1 (stereo not given)
CC50 [1]: 39 µM (active)
EC50 [2]: 2.76 µM (active)
AC50 (CAAX prenyl protease 2): 9.16 µM (active)
AC50 (Trypsin): > 100 µM (inactive)
EC50 [3]: > 30 µM (not active)
IC50 [4]: 110 µM (active)

Compound: O=C(Nc1cc(S(=O)(=O)N2CCOCC2)ccc1N1CCCCC1)c1ccc(Cl)cc1
IC50 [5]: 50.5 µM (active)

Compound: COc1ccc(-c2c[nH]nc2-c2ccc(OCc3ccccc3F)cc2O)cc1OC
IC50 (HEK293 [6]): 6.09 µM (active)
IC50 (HEK293 [7]): > 20 µM (inactive)
IC50 (HEK293 [8]): 11.7 µM (active)
EC50 (HEK293 [9]): 9.16 µM (active)
IC50 (HEK293 [10]): 7.5 µM (active)
EC50 [11]: > 20 µM (inactive)

Compound: Cc1ncc(CN2CCCC(C(=O)c3ccc(C(C)(C)C)cc3)C2)s1 (stereo not given)
IC50 (Coagulation factor XII): > 50 µM (inactive)

Compound: COCCCn1c(N)c(C(=O)NCc2ccco2)c2nc3ccccc3nc21
AC50 (Trypsin): 10.3 µM (active)

IC50 (Coagulation factor XII): > 50 µM (inactive)
Compound: CC(=O)Nc1ccc(S(=O)(=O)NCCNc2ccccc2[N+](=O)[O-])cc1

Compound: O=C(O)c1ccc(-n2c(-c3ccc(Br)cc3)n[nH]c2=S)cc1
IC50 [5]: 9.1 µM (active)

IC50 (Coagulation factor XII): > 50 µM (inactive)
Compound: C=CCn1c(SCC(=O)Nc2cccnc2Cl)nnc1-c1ccc(Cl)cc1

Compound: O=C(COc1ccc2c(-c3ccccc3)cc(=O)oc2c1)Nc1cccnc1
IC50 (HEK293 [6]): 2.21 µM (active)
IC50 [12]: > 80 µM (inactive)
IC50 [13]: 3.17 µM (active)
IC50 (HEK293 [7]): > 20 µM (inactive)
IC50 (HEK293 [8]): 18.7 µM (active)
EC50 (HEK293 [9]): 0.75 µM (active)
IC50 (Tumor necrosis factor): 4.59 µM (active)
IC50 (HEK293 [10]): 10.8 µM (inactive)
EC50 [11]: > 20 µM (inactive)
IC50 (HEK293 [14]): > 20 µM (inactive)

Compound: COc1cc(/C=C2\CC(C(C)(C)C)C/C(=C\c3cc(OC)c(OC)c(OC)c3)C2=O)cc(OC)c1OC (stereo not given)
IC50 (HEK293 [6]): 4.76 µM (active)
EC50 (BJ [15]): 4.94 µM (active)
EC50 (BJ [16]): 5.18 µM (inconclusive)
IC50 (HEK293 [7]): > 20 µM (inactive)
EC50 (BJ [17]): 12 µM (inconclusive)
IC50 (HEK293 [8]): 18.3 µM (active)
EC50 (HEK293 [9]): 5.25 µM (active)
AC50 (INS1): 5.52 µM (active)
IC50 (HEK293 [10]): 4.98 µM (active)
EC50 [11]: 8.66 µM (active)
EC50 [18]: 4.23 µM (active)

IC50 (Aminopeptidase N): 22.4 µM (active)
Compound: COc1ccc(S(=O)(=O)NC2=NC(=O)/C(=C\c3cc(OC)c(OC)cc3[N+](=O)[O-])S2)cc1

Reference: ChEMBL document CHEMBL1201862, “PubChem BioAssay data set” (2004)
